Data on 12 compounds can be found in patent US5565441A, “Phosphonoacetic esters and acids as anti-inflammatories” (The Upjohn Company, priority 1995, dated 1996).

Like-named read-outs stand apart in the source and are kept apart here.

The test system of this assay is DTH granuloma (DTH GRA) lesion in mBSA-sensitized mice. Description: Delayed Type Hypersensitivity Granuloma Assay (DTH GRA) model for inflammation. Particulars: for inhibition in vivo at 10 mg/kg: read-out: % Inhibition (DTH granuloma). It is filed as in vivo, mouse. The source says:
The Formula I compounds of this invention have been tested in a Delayed Type Hypersensitivity Granuloma Assay (DTH GRA) model for inflammation. This assay is described by Dunn, C. J. et al., "Development of a delayed-type hypersensitivity granuloma model in the mouse for the study of chronic immune-mediated inflammatory disease," Agents and Actions, 27, 3/4 (1989) and "Murine Delayed-Type Hypersensitivity Granuloma," Int. J. Immunopharmc., 12, 8, 899-904 (1990).
Briefly, mBSA-sensitized mice have a DTH granuloma (DTH GRA) lesion induced by subcutaneously implanting a mBSA-soaked filter which is excised after nine days. Compounds are administered to the mice to determine their effect on the lesions. The results are recorded as percent inhibition. […] Inhibition of 10 to 20% is considered to indicate anti-granuloma activity. Greater than 30% inhibition is good activity.

The mark [1] stands for this setting: Mus musculus, 216 h, 10 MPK, PO, mBSA-sensitized mice, mBSA-soaked filter excised after nine days.

Turning to `CCOC(=O)C(CCC(=O)c1ccccc1)P(=O)(OCC)OCC` (stereo not drawn) [Compound 1, Benzenepentanoic acid, α-(diethoxyphosphinyl)-δ-oxo-, ethyl ester], the inhibition in vivo at 50 mg/kg (Mus musculus, 216 h, at 50 MPK, PO, mBSA-sensitized mice, mBSA-soaked filter excised after nine days) is 37%.
As to `COC(=O)C(CCC(=O)c1cccc(F)c1)P(=O)(OC)OC` (stereo not drawn) [Compound 2, Benzenepentanoic acid, α-(dimethoxyphosphinyl)-3-fluoro-δ-oxo-,methyl ester], under setting [1], the inhibition in vivo at 10 mg/kg was determined as 26%.
Same read-out and setting: next, `CCOC(=O)C(CC(C(=O)c1ccccc1)c1ccccc1)P(=O)(OCC)OCC` (stereo not drawn) [Compound 3, Benzenepentanoic acid, α-(diethoxyphosphinyl)-δ-oxo-γ-phenyl-, ethyl ester]: 21%.
Still for that read-out and setting: as for `COC(=O)C(CCC(=O)c1cccnc1)P(=O)(OC)OC` (stereo not drawn) [Compound 4, 3-Pyridinepentanoic acid, α-(dimethoxyphosphinyl)-δ-oxo-, methyl ester], the figure is 37%; as for `COC(=O)C(CCc1nc(-c2ccccc2)cc(=O)n1C)P(=O)(OC)OC` (stereo not drawn) [Compound 6a, 2-Pyrimidinebutanoic acid, α-(dimethoxyphosphinyl)-1,6-dihydro-1-methyl-6-oxo-4-phenyl-, methyl ester], 51%; as for `COC(=O)C(CCc1nc(-c2ccccc2)cc(=O)n1C)P(=O)(O)O` (stereo not drawn) [Compound 6b], 37%.
Regarding `COC(=O)C(CCc1cc(C)nc2c(C#N)c(C)nn12)P(=O)(OC)OC` (stereo not drawn) [Compound 7, Pyrazolo(1,5-a)pyrimidine-7-butanoic acid, 3-cyano-α-(dimethoxyphosphinyl)-2,5-dimethyl-, methyl ester], under setting [1], the inhibition in vivo at 10 mg/kg came out at 38%.
As for `CCOC(=O)C1=NNC(C(=O)OC)(P(=O)(OC)OC)C1` (stereo not drawn) [Compound 8, 1H-Pyrazole-5-carboxylic-acid, 3-carboethoxy-5-(dimethoxyphosphinyl)-4,5-dihydro, methyl ester], the “% Inhibition (DTH granuloma)” value (10 MPK, PO, mBSA-sensitized mice, mBSA-soaked filter excised after nine days) was determined as 59%.
As to `COC(=O)C1(P(=O)(OC)OC)CC(C(=O)c2ccccc2)=NN1` (stereo not drawn) [Compound 9, 1H-Pyrazole-5-carboxylic acid, 3-benzoyl-5-(dimethoxyphosphinyl)-4,5-dihydro-, methyl ester], the inhibition in vivo at 10 mg/kg under setting [1] came out at 37%.
Regarding `COC(=O)C1(P(=O)(OC)OC)CC1C(=O)c1ccccc1` (stereo not drawn) [Compound 10, Cyclopropanecarboxylic acid, 2-benzoyl-1-(dimethoxyphosphinyl)-, methyl ester], the inhibition in vivo at 10 mg/kg under setting [1] is 47%.
Consider `COC(=O)C1(P(=O)(OC)OC)CN1N1C(=O)c2ccccc2C1=O` (stereo not drawn) [Compound 11, 2-Aziridinecarboxylic acid, 1-(1,3-dihydro-1,3-dioxo-2H-isoindol-2-yl)-2-(dimethoxyphosphinyl)-, methyl ester], for which the inhibition in vivo at 10 mg/kg (Mus musculus, po, 216 h) came to 42%.
With `COP(=O)(OC)C(CCc1nc(-c2ccccc2)cc(=O)n1C)C(=O)OC(C)(C)C` (stereo not drawn) [Compound 15, 2-Pyrimidine butanoic acid, α-(dimethoxyphosphinyl)-1,6-dihydro-1-methyl-6-oxo-4-phenyl, dimethylethyl ester], the inhibition in vivo at 10 mg/kg under setting [1] is 21%.
